Measured values as given in EP0349941A2, “Morpholino derivatives of rhodomycins, process for their preparation and their use” (BEHRINGWERKE Aktiengesellschaft, priority 1988, dated 1990).
≈ marks a conversion by molar mass, not a printed value. Where two headings read alike, the source gives them in different places. One block for each compound: values may come before it.

Columns and labels:
A 549 = test: Proliferation test (MTT reduction), A 549; type: cell-based, menschlichen; conditions: A 549 cells, 72 h incubation; for IC50: Homo sapiens, A549, read-out: IC₅₀ MTT-ASSAY A 549
Method: (§1) L1210, A 549 oder HT 29 in exponentieller Wachstumsphase wurden in einer Zelldichte von 5 x 10³ Zellen/ml in RPMI 1640 in einer 96 Well Mikrotiterplatte für 72 h mit unterschiedlichen Konzentrationen der Testsubstanz bei 37° C, 5 % CO₂ und 95 % relativer Luftfeuchte inkubiert. Kontrollexperimente erhielten anstelle der Testsubstanz lediglich Wachstumsmedium. Für jede Testsubstanz sowie für die Kontrolle wurden 4fach Bestimmungen angesetzt. Nach 65 h Inkubation wurden 50 µl einer MTT-Lösung (2,5 mg/ml in Phosphat-gepuffertem Kochsalz) zugegeben. In Gegenwart lebender Zellen wurde MTT zu einem dunkelroten unlöslichen Formazanfarbstoff reduziert. Diese Reaktion war nach 7 h (L1210 Zellen) bzw. nach 24 h (A 549, HT 29 Zellen) beendet und das überstehende Medium wird sorgfältig abgesaugt. Der unlösliche Farbstoff wurde durch Zugabe von 100 µl DMSO aufgelöst und die Extinktion der so entstehenden Lösung anschließend für jedes Well in einem Multiscan Photometer 340 CC der Fa. Flow bei einer Wellenlänge von 492 nm vermessen.
(§2) Aus dem Verhältnis der Extinktionen behandelter und unbehandelter Zellen ergab sich eine Dosis-Wirkungskurve, aus der die Konzentration, die gerade 50 % der Zellen (IC₅₀) abtötet, abgelesen werden konnte. Für wiederholte Untersuchungen betrug der Variationskoeffizient weniger als 15 %.

L1210 = test: Proliferation test (MTT reduction), L1210; type: cell-based, Maus; conditions: L1210 cells, 72 h incubation; for IC50: Mus musculus, read-out: IC₅₀ MTT-ASSAY L1210
Method: as §1, §2

L1210 Leukämiezellen = test: Cytotoxicity against L1210 leukaemia cells (stem cell assay, colony formation in soft agar); type: cell-based, Maus; conditions: colonies counted after 5-7 days; for IC50: Mus musculus, L1210
Method: Der Test wurde entsprechend der von Hamburger und Salmon beschriebenen Methodik mit den unten beschriebenen Modifikationen durchgeführt.
Konditioniertes Medium wurde durch McCoy 5A Medium ersetzt. Als Folge der hohen Klonierungsrate der L1210 Leukämiezellen in Soft Agar wurde die Anzahl an Tumorzellen pro Platte auf 5 x 10² reduziert.
Die Zellen wurden mit unterschiedlichen Konzentrationen der Testsubstanz für 1 h bei 37° C inkubiert. Anschlie-ßend wurden die Zellen zweimal mit McCoy 5A Medium gewaschen und anschließend in einem Zwei-Schichten-Agar System als obere Schicht entsprechend der Methode von Hamburger und Salmon ausplattiert.
Zusätzliche Parallelexperimente wurden unter Verwendung einer kontinuierlichen Inkubationszeit durchgeführt, wobei unterschiedliche Konzentrationen der Testsubstanz der oberen Agarschicht vor Ausplattieren der Zellen zugemischt wurden.
Die Platten wurden in einem Brutschrank mit 5 % CO₂, 20 % O₂ und 95 % relativer Luftfeuchte für 5-7 Tage inkubiert. Nach dieser Zeit wurden Kolonien mit einem Durchmesser von 60 µm mit Hilfe eines Invertoskopes gezählt.
Die Ergebnisse wurden angegeben als prozentualer Anteil der Kolonien in behandelten versus unbehandelten Gruppen. Der Variationskoeffizient bei wiederholten Experimenten war kleiner als 15 %.
Die an den getesteten Verbindungen erhaltenen Resultate sind in der Tabelle 1 enthalten. Aus der Dosis-Wirkungskurve wurde die IC₅₀ für die kontinuierliche und einstündige Inkubation bestimmt (Tab. 1).

HT 29 = test: Proliferation test (MTT reduction), HT 29; type: cell-based, menschlichen; conditions: HT 29 cells, 72 h incubation; for IC50: Homo sapiens, read-out: IC₅₀ MTT-ASSAY HT 29
Method: as §1, §2

L1210 Leukämie der Maus = test: In vivo efficacy against L1210 leukaemia of the mouse; conditions: L1210 tumour model in vivo
Method: Ascitesflüssigkeit wurde unter sterilen Bedingungen DBA2 Mäusen (weiblich, 18 - 20 g) 7 Tage nach Implantation entnommen. Der Ascites wurde dreimal mit PBS gewaschen, gezählt und auf eine Zellzahl von 10⁶ in 0.2 ml PBS eingestellt. 10⁶ Zellen, suspendiert in 0.2 ml PBS, wurden anschlie-ßend DBF1 Mäusen (weiblich, 18 - 20 g) intraperitoneal injiziert. 6 Tiere pro Gruppe wurden für jede Substanzkonzentration bzw. als Kontrolle eingesetzt.
Zur Ermittlung der antitumoralen Wirksamkeit wurden die Tiere am Tag 1 und 5 nach Injektion der Testsubstanz gewogen. Gewichtsverlust von mehr als 20 % am Tag 5 wurde als Indikator einer toxischen Substanzwirkung angesehen.
Am Ende des Experimentes (Tod aller Tiere oder überlebende Tiere am Tag 60) wurde die mittlere Überlebenszeit der Tiere in den jeweiligen Gruppen bestimmt, sofern am Tag 5 des Experimentes mindestens 65 % der Tiere noch gelebt hatten. Die mittlere Überlebenszeit wurde ausschließlich für im Verlaufe des Experimentes sterbende Tiere bestimmt. Langzeitüberlebende (LTS) wurden bei dieser Berechnung nicht berücksichtigt und gesondert aufgeführt.
Aus der mittleren Überlebenszeit (MSTr) der behandelten Gruppen sowie der Kontrollgruppen (MSTc) wurde die antitumorale Wirksamkeit (T/C) für die jeweilige Substanzkonzentration in Prozent der unbehandelten Kontrolle entsprechend der folgenden Formel bestimmt: [formula] […]

[1] = 1 h incubation at 37° C, read-out: IC₅₀ STEM CELL ASSAY 1 h exp. L1210
[2] = continuous incubation, read-out: IC₅₀ STEM CELL ASSAY cont. exp. L1210

Compound: 7-0-(3′-(3˝-oder 5˝-Cyano-6˝(S)-hydroxymethyl-2˝(S)-methoxy-4˝-morpholinyl)-2′,3′,6′-tri-desoxy-alpha-L-arabinohexopyranosyl)-epsilon-isorhodomycinon [XXIV]
IC₅₀ MTT-ASSAY A 549 (A 549): 0.011 µg/mL
IC₅₀ MTT-ASSAY L1210 (L1210): 0.0071 µg/mL
IC₅₀ STEM CELL ASSAY 1 h exp. L1210 (L1210 Leukämiezellen; 1 h incubation at 37° C): 0.034 µg/mL
IC₅₀ MTT-ASSAY HT 29 (HT 29): 0.017 µg/mL

Compound: CC[C@@]1(O)C[C@H](O[C@H]2C[C@H](N3C[C@@H](CO)O[C@H](OC)C3)[C@@H](O)[C@H](C)O2)c2c(O)c3c(c(O)c2[C@H]1C(=O)OC)C(=O)c1c(O)ccc(O)c1C3=O [XV, 7-0-(3′-(6˝(S)-Hydroxymethyl-2˝(S)-methoxy-4˝-morpholinyl)-2′,3′,6′-tri-desoxy-alpha-L-arabinohexopyranosyl)epsilon-isorhodomycinon]
IC50 (A 549): 0.038 µg/mL (≈ 0.054 µM)
IC50 (L1210): 0.035 µg/mL (≈ 0.0497 µM)
IC50 (L1210 Leukämiezellen; [1]): 0.32 µg/mL (≈ 0.455 µM)
IC50 (L1210 Leukämiezellen; [2]): 0.078 µg/mL (≈ 0.111 µM)
IC50 (HT 29): 0.03 µg/mL (≈ 0.0426 µM)

Compound: CC[C@@]1(O)C[C@H](O[C@H]2C[C@H](N3C[C@@H](CO)O[C@H](OC)C3)[C@H](O)[C@H](C)O2)c2c(O)c3c(c(O)c2[C@H]1C(=O)OC)C(=O)c1c(O)ccc(O)c1C3=O [VIII, 7-0-(3′-(6˝(s)-Hydroxymethyl-2˝(s)-methoxy-4˝-morpholinyl)-2′,3′,6′-tri-desoxy-alpha-L-lyxohexopyranosyl)-epsilon-isorhodomycinon]
Wirkung in dem L1210 Tumormodell in vivo (L1210 Leukämie der Maus): kurativ wirksam
IC50 (A 549): 0.038 µg/mL (≈ 0.054 µM)
IC50 (L1210): 0.009 µg/mL (≈ 0.0128 µM)
IC50 (L1210 Leukämiezellen; [1]): 0.95 µg/mL (≈ 1.35 µM)
IC50 (L1210 Leukämiezellen; [2]): 0.029 µg/mL (≈ 0.0412 µM)
IC50 (HT 29): 0.035 µg/mL (≈ 0.0497 µM)

IC50 (L1210): 0.008 µg/mL (≈ 0.013 µM)
Compound: CC[C@@]1(O)C[C@H](O[C@H]2C[C@H](N3C[C@H]4CO[C@@H](C3)O4)[C@H](O)[C@H](C)O2)c2c(O)c3c(c(O)c2[C@H]1O)C(=O)c1cccc(O)c1C3=O [XX, 7-0-(3′-(2˝,6˝-Epoximethano-4˝-morpholinyl)-2′,3′,6′-tridesoxy-alpha-L-lyxohexopyranosyl)-ß-rhodomycinon]
IC50 (A 549): 0.014 µg/mL (≈ 0.0228 µM)
IC50 (L1210 Leukämiezellen; [1]): 0.12 µg/mL (≈ 0.196 µM)
IC50 (HT 29): 0.036 µg/mL (≈ 0.0587 µM)

Compound: CCC1(O)CC(O[C@H]2C[C@H](N3CCOCC3)[C@H](O)[C@H](C)O2)c2c(O)c3c(c(O)c2C1C(=O)OC)C(=O)c1c(O)ccc(O)c1C3=O (stereo partly drawn) [Verbindung 26, 7-0-(3′-(4˝-Morpholinyl)-2′,3′,6′-tridesoxy-alpha-L-lyxohexopyranosyl)-epsilon-isorhodomycinon]
Wirkung in dem L1210 Tumormodell in vivo (L1210 Leukämie der Maus): nur eine marginale Wirkung

Compound: 7-0-(3′-(3˝ oder 5˝-Cyano-6˝(S)-hydroxymethyl-2˝(S)-methoxy-4˝-morpholinyl)-2′,3′,6′-tri-desoxy-alpha-L-lyxohexopyranosyl)-epsilon-isorhodomycinon [XXIII]
IC₅₀ MTT-ASSAY A 549 (A 549): 0.0021 µg/mL
IC₅₀ MTT-ASSAY L1210 (L1210): 0.0009 µg/mL
IC₅₀ STEM CELL ASSAY 1 h exp. L1210 (L1210 Leukämiezellen; 1 h incubation at 37° C): 0.027 µg/mL
IC₅₀ MTT-ASSAY HT 29 (HT 29): 0.0031 µg/mL

Compound: CC[C@@]1(O)C[C@H](O[C@H]2C[C@H](N3C[C@@H](CO)O[C@@H](OC)C3)[C@H](O)[C@H](C)O2)c2c(O)c3c(c(O)c2[C@H]1O)C(=O)c1cccc(O)c1C3=O [XVII, 7-0-(3′-(6˝(S)-Hydroxymethyl-2˝(R)-methoxy-4˝-morpholinyl)-2′,3′,6′-tri-desoxy-alpha-L-lyxohexopyranosyl)-ß-rhodomycinon]
IC50 (L1210 Leukämiezellen; [1]): 1 µg/mL (≈ 1.55 µM)
IC50 (L1210 Leukämiezellen; [2]): 0.55 µg/mL (≈ 0.852 µM)

Compound: 7-0-(3′-(3˝- oder 5˝-Cyano-6˝(S)-hydroxymethyl-2˝(S)methoxy-4˝-morpholinyl)-2′,3′,6′-tri-desoxy-alpha-L-lyxohexopyranosyl)-ß-rhodomycinon [XXV]
IC₅₀ MTT-ASSAY A 549 (A 549): 0.003 µg/mL
IC₅₀ MTT-ASSAY L1210 (L1210): 0.0005 µg/mL
IC₅₀ STEM CELL ASSAY 1 h exp. L1210 (L1210 Leukämiezellen; 1 h incubation at 37° C): 0.007 µg/mL
IC₅₀ MTT-ASSAY HT 29 (HT 29): 0.002 µg/mL

Compound: CC[C@@]1(O)C[C@H](O[C@H]2C[C@H](N3C[C@@H](OC)O[C@@H](C)C3)[C@H](O)[C@H](C)O2)c2c(O)c3c(c(O)c2[C@H]1O)C(=O)c1cccc(O)c1C3=O [XIX, 7-0-(3′-(6˝(S)-methyl-2˝(S)-methoxy-4˝-morpholinyl)-2′, 3′,6′-tridesoxy-alpha-L-lyxohexopyranosyl)-ß-rhodomycinon]
IC50 (L1210 Leukämiezellen; [1]): 0.095 µg/mL (≈ 0.151 µM)
IC50 (L1210 Leukämiezellen; [2]): 0.021 µg/mL (≈ 0.0334 µM)

Compound: CC[C@@]1(O)C[C@H](O[C@H]2C[C@H](N3C[C@@H](CO)O[C@@H](OC)C3)[C@H](O)[C@H](C)O2)c2c(O)c3c(c(O)c2[C@H]1C(=O)OC)C(=O)c1c(O)ccc(O)c1C3=O [IX, 7-0-(3′-(6˝(S)-Hydroxymethyl-2˝(R)-methoxy-4˝-morpholinyl)-2′,3′,6′-tri-desoxy-alpha-L-lyxohexopyranosyl)-epsilon-isorhodomycinon]
IC50 (L1210 Leukämiezellen; [1]): 1 µg/mL (≈ 1.42 µM)
IC50 (L1210 Leukämiezellen; [2]): 0.12 µg/mL (≈ 0.171 µM)

Compound: CC[C@@]1(O)C[C@H](O[C@H]2C[C@H](N3C[C@@H](CO)O[C@@H](n4cnc5c(N)ncnc54)C3)[C@H](O)[C@H](C)O2)c2c(O)c3c(c(O)c2[C@H]1C(=O)OC)C(=O)c1c(O)ccc(O)c1C3=O [XIV]
IC50 (L1210 Leukämiezellen; [1]): 0.5 µg/mL (≈ 0.62 µM)
IC50 (L1210 Leukämiezellen; [2]): 1 µg/mL (≈ 1.24 µM)

Compound: CC[C@@]1(O)C[C@H](O[C@H]2C[C@H](N3C[C@@H](CO)O[C@H](OC)C3)[C@H](O)[C@H](C)O2)c2c(O)c3c(c(O)c2[C@H]1O)C(=O)c1cccc(O)c1C3=O [XVI, 7-0-(3′-(6˝(S)-Hydroxymethyl-2˝(S)-methoxy-4˝-morpholinyl)-2′,3′,6′-tri-desoxy-alpha-L-lyxohexopyranosyl)-ß-rhodomycinon]
IC50 (A 549): 0.046 µg/mL (≈ 0.0712 µM)
IC50 (L1210): 0.036 µg/mL (≈ 0.0558 µM)
IC50 (L1210 Leukämiezellen; [1]): 0.15 µg/mL (≈ 0.232 µM)
IC50 (L1210 Leukämiezellen; [2]): 0.026 µg/mL (≈ 0.0403 µM)
IC50 (HT 29): 0.11 µg/mL (≈ 0.17 µM)
